The subject of data set [1] is Lacticaseibacillus paracasei. Description: Antibacterial activity against Lacticaseibacillus paracasei subsp.paracasei ATCC25302 assessed as bacterial growth inhibition incubated for overnight by visual analysis. Conditions: subsp. paracasei ATCC 25302. The class given is functional.
Data set [2] concerns Brevibacterium epidermidis. Description: Antibacterial activity against Brevibacterium epidermidis ATCC35514 assessed as bacterial growth inhibition incubated for overnight by visual analysis. Type of data set: functional.
Data set [3] concerns Staphylococcus aureus. Description: Antibacterial activity against methicillin-resistant Staphylococcus aureus USA300 assessed as bacterial growth inhibition incubated for overnight by visual analysis. The class given is functional.
The subject of data set [4] is Escherichia coli. Description: Antibacterial activity against Escherichia coli MG1655 assessed as bacterial growth inhibition incubated for overnight by visual analysis. The class given is functional.
Data set [5] concerns Acinetobacter baumannii. Description: Antibacterial activity against Acinetobacter baumannii assessed as bacterial growth inhibition incubated for overnight by visual analysis. Type of data set: functional.
The test system of data set [6] is Acinetobacter baumannii. The data set can be described thus: Antibacterial activity against Acinetobacter baumannii harboring LPS-deficient mutant lpxC assessed as bacterial growth inhibition incubated for overnight by visual analysis. The class given is functional.
The test system of data set [7] is Escherichia coli. The data set can be described thus: Synergistic antibacterial activity against wild type Escherichia coli MG1655 assessed as potentiation of colistin-induced antibacterial effect by measuring colistin MIC at 0.32 to 84 ug/ml incubated for 24 hrs by checker board assay (reference value: 2.5 ug/ml). Type of data set: functional. The conditions noted are these: dose 0.32-84 µg/ml.

In data set [8] the test system is Escherichia coli. Description: Synergistic antibacterial activity against wild type Escherichia coli MG1655 assessed as potentiation of colistin-induced antibacterial effect by measuring […] in colistin MIC at 0.32 to 84 ug/ml incubated for 24 hrs by checker board assay relative to control. Type of data set: functional. Conditions: dose 0.32-84 µg/ml.

For data set [9], the system named is Acinetobacter baumannii. The data set can be described thus: Synergistic antibacterial activity against Acinetobacter baumannii assessed as potentiation of colistin-induced antibacterial effect by measuring colistin MIC at 0.32 to 84 ug/ml incubated for 24 hrs by checker board assay (reference value: 0.2 ug/ml). Type of data set: functional. Conditions: dose 0.32-84 µg/ml.

Data set [10] concerns Acinetobacter baumannii. The data set can be described thus: Synergistic antibacterial activity against Acinetobacter baumannii assessed as potentiation of colistin-induced antibacterial effect by measuring […] in colistin MIC at 0.32 to 84 ug/ml incubated for 24 hrs by checker board assay relative to control. The class given is functional. Conditions: dose 0.32-84 µg/ml.

The next data set concerns HCT-116. Description: Cytotoxicity against human HCT-116 cells at 31.25 to 500 uM incubated for 24 hrs by CellTiter96 aqueous one solution based assay. Type of data set: functional, cell-based. The conditions noted are these: dose 31.25-500 µM.
For the next data set, the system named is A549. Description: Cytotoxicity against human A549 cells at 31.25 to 500 uM incubated for 24 hrs by CellTiter96 aqueous one solution based assay. Type of data set: functional, cell-based. Conditions: dose 31.25-500 µM.
Another data set concerns HepG2. The data set can be described thus: Cytotoxicity against human HepG2 cells at 31.25 to 500 uM incubated for 24 hrs by CellTiter96 aqueous one solution based assay. Type of data set: functional, cell-based. Conditions: dose 31.25-500 µM.
The test system of the next data set is HT-1080. The data set can be described thus: Cytotoxicity against human HT-1080 cells at 31.25 to 500 uM incubated for 24 hrs by CellTiter96 aqueous one solution based assay. The conditions noted are these: dose 31.25-500 µM. Type of data set: functional, cell-based.
The next data set concerns WI-38. The data set can be described thus: Cytotoxicity against human WI-38 cells at 31.25 to 500 uM incubated for 24 hrs by CellTiter96 aqueous one solution based assay. Type of data set: toxicity, cell-based. Conditions: wi-38, 24 h, dose 31.25-500 µM.
The nature of data set [11]: Cytotoxicity against human Chang liver cells at 31.25 to 500 uM incubated for 24 hrs by CellTiter96 aqueous one solution based assay. Conditions: dose 31.25-500 µM. The class given is toxicity, cell-based.
In a further data set the test system is NIH3T3. The data set can be described thus: Cytotoxicity against mouse NIH3T3 cells at 31.25 to 500 uM incubated for 24 hrs by CellTiter96 aqueous one solution based assay. The class given is toxicity, cell-based. Conditions: nih3t3, 24 h, dose 31.25-500 µM.
In another data set the test system is RAW264.7. The data set can be described thus: Antiinflammatory activity in mouse RAW 264.7 cells assessed as inhibition of LPS-induced NO production at 10 uM pretreated for 1 hr followed by LPS stimulation and further incubated for 24 hrs by griess reagent based assay. Type of data set: functional, cell-based. The conditions noted are these: time 25.0 hrs. On the technique in general: Griess reagent forms a coloured azo dye with nitrite.

The subject of data set [12] is Staphylococcus aureus. Description: Antibacterial activity against methicillin-resistant Staphylococcus aureus ATCC 33591 assessed as bacterial growth inhibition incubated for 18 hrs. Type of data set: functional.
A further data set relates to Bacillus subtilis. The data set can be described thus: Antibacterial activity against Bacillus subtilis NRS-231 assessed as bacterial growth inhibition incubated for 18 hrs. The class given is functional.
In data set [13] the test system is Escherichia coli. The data set can be described thus: Antibacterial activity against Escherichia coli ATCC 25922 assessed as bacterial growth inhibition incubated for 18 hrs. Type of data set: functional.

SMILES strings stand for the structures. Where “and” joins values, the source holds several entries; their conditions need not be identical. Identical values can stand only once. Calls of active or inactive are those of the source. No cut-off for these calls is given here.

Turning to `CCCc1n(CCc2c[nH]c3ccccc23)c(C)c(C)[n+]1CCc1c[nH]c2ccccc12`, the MIC was 0.7 µg/mL and 1.56 µM in data set [1]; 1.3 µg/mL and 3.13 µM in [2]; 1.3 µg/mL and 3.13 µM in the data set on Staphylococcus aureus [3]; > 100 µM with Escherichia coli [4]; > 100 µM in the data set with Acinetobacter baumannii [5]; 2.6 µg/mL and 6.25 µM in the data set on Acinetobacter baumannii [6]. The MIC turned out to be 0.313 µg/mL in the data set on Escherichia coli [7] and 0.05 µg/mL with Acinetobacter baumannii [9]. Also, the “fold change (FC)” value worked out at 8 in the data set on Escherichia coli [8] and 4 with Acinetobacter baumannii [10]. Moreover, the outcome with HCT-116, in the data set with A549, in the data set on HepG2 and in the data set with HT-1080 was inactive. The Activity result (in the data set on WI-38; in data set [11]; in the data set on NIH3T3) was “Non-Toxic” in each case.

As for `Cc1c(C)[n+](CCc2c[nH]c3ccccc23)c(CC(C)C)n1CCc1c[nH]c2ccccc12`, the MIC is 22 µg/mL and 50 µM in data set [1]; > 100 µM in data set [2]; > 100 µM in the data set with Staphylococcus aureus [3]; > 100 µM in the data set with Escherichia coli [4]; > 100 µM in the data set with Acinetobacter baumannii [5]; 22 µg/mL and 50 µM in the data set with Acinetobacter baumannii [6]. Also, the result in the data set on HCT-116, in the data set on A549, with HepG2 and in the data set on HT-1080 was inactive. Also, the Activity result (in the data set with WI-38; in data set [11]; with NIH3T3) was “Non-Toxic” each time. Besides, the inhibition result in the data set on RAW264.7 is “inactive”.

Turning to `CC(=O)C(C)NCCc1c[nH]c2ccccc12` (stereo not drawn), the MIC in data set [1] is 6 µg/mL and 25 µM; in data set [2], 12 µg/mL and 50 µM; in the data set with Staphylococcus aureus [3], 12 µg/mL and 50 µM; in the data set on Escherichia coli [4] it was > 100 µM. In addition, the result in the data set on HCT-116, in the data set on A549, in the data set with HepG2 and with HT-1080 was inactive. Further, the Activity entry (with WI-38; in data set [11]; in the data set with NIH3T3) was “Non-Toxic” each time.

For `CCCc1n(CCC(C)C)c(C)c(C)[n+]1CCc1c[nH]c2ccccc12`, the MIC was 9 µg/mL and 25 µM in data set [1]; > 100 µM in [2]; > 100 µM in the data set on Staphylococcus aureus [3]; > 100 µM in the data set on Escherichia coli [4]; > 100 µM in the data set on Acinetobacter baumannii [5]; 9 µg/mL and 25 µM in the data set on Acinetobacter baumannii [6]. The result in the data set on HCT-116, in the data set on A549, in the data set with HepG2 and in the data set with HT-1080 was inactive. The Activity result (in the data set with WI-38; in [11]; in the data set with NIH3T3) was “Non-Toxic” throughout. The inhibition entry in the data set with RAW264.7 was “Active”.

For `Cc1c(C)[n+](CCc2c[nH]c3ccccc23)c(C)n1CCc1c[nH]c2ccccc12`, the minimal inhibitory concentration (MIC) is 20 µg/mL and 50 µM in data set [1]; > 100 µM in data set [2]; 20 µg/mL and 50 µM with Staphylococcus aureus [3]; > 100 µM with Escherichia coli [4]; > 100 µM in the data set on Acinetobacter baumannii [5]; 40 µg/mL and 100 µM with Acinetobacter baumannii [6]. The MIC with Staphylococcus aureus [12], in the data set with Bacillus subtilis and in the data set on Escherichia coli [13] was > 50 µM each time. In addition, the outcome in the data set on HCT-116, with A549, in the data set with HepG2 and in the data set with HT-1080 was inactive. The Activity entry (in the data set on WI-38; in data set [11]; in the data set on NIH3T3) was “Non-Toxic” throughout.

Consider `CC(=O)c1cc(C)c(C)n1CCc1c[nH]c2ccccc12`, for which the result in the data set on HCT-116, with A549, in the data set with HepG2 and with HT-1080 was inactive. In addition, the Activity entry (with WI-38; in data set [11]; with NIH3T3) was “Non-Toxic” in each case. In addition, the inhibition entry with RAW264.7 is “Active”.

In the case of `NCCc1c[nH]c2ccccc12` [TRYPTAMINE], the outcome in the data set with HCT-116, in the data set on A549, in the data set with HepG2 and with HT-1080 was inactive. The Activity result (in the data set with WI-38; in [11]; in the data set on NIH3T3) was “Non-Toxic” in each case.

Regarding `Cc1c(C)[n+](CCc2c[nH]c3ccccc23)c(C)n1CCc1ccccc1`, in data set [1], the minimal inhibitory concentration (MIC) is > 36 µg/mL and > 100 µM. Moreover, the result in the data set on HCT-116, with A549, in the data set on HepG2 and in the data set with HT-1080 was inactive. For the same compound, the Activity result (in the data set on WI-38; in data set [11]; in the data set with NIH3T3) was “Non-Toxic” in each case. For the same compound, in the data set with RAW264.7, the inhibition result was “inactive”.

As to `CCCC(=O)C(C)NCCc1c[nH]c2ccccc12` (stereo not drawn), the outcome with HCT-116, in the data set with A549, with HepG2 and in the data set on HT-1080 was inactive. Further, the Activity entry (in the data set on WI-38; in data set [11]; in the data set with NIH3T3) was “Non-Toxic” in each case.

Turning to `O=c1[nH]cc(F)c(=O)[nH]1` [FLUOROURACIL], the Activity result (with WI-38; in [11]; with NIH3T3) was “Toxic” each time.

Turning to `CCCc1c(C)[n+](CCc2c[nH]c3ccccc23)c(CCC)n1CCc1c[nH]c2ccccc12`, the MIC in [1] was 6 µg/mL and 12.5 µM; in data set [2], 11 µg/mL and 25 µM; in the data set with Staphylococcus aureus [3] it was 11 µg/mL and 25 µM; in the data set with Escherichia coli [4], > 100 µM; in the data set with Acinetobacter baumannii [5] it was > 100 µM; in the data set on Acinetobacter baumannii [6], 11 µg/mL and 25 µM. Also, the result with HCT-116, with A549, in the data set with HepG2 and with HT-1080 was Active. The Activity result (in the data set on WI-38; in [11]; in the data set on NIH3T3) was “Non-Toxic” throughout. Besides, the inhibition entry in the data set on RAW264.7 is “Active”.

Take `CC(=O)NCCc1ccccc1`: the outcome in the data set on HCT-116, in the data set on A549, in the data set on HepG2 and in the data set with HT-1080 was inactive. In addition, the Activity result (in the data set with WI-38; in [11]; with NIH3T3) was “Non-Toxic” throughout.

For the compound `Cc1c(C)[n+](CCc2c[nH]c3ccccc23)cn1CCc1ccccc1`, in data set [1], the MIC was > 34 µg/mL and > 100 µM. Further, the outcome in the data set with HCT-116, in the data set on A549, in the data set on HepG2 and with HT-1080 was inactive. Also, the Activity result (with WI-38; in [11]; in the data set with NIH3T3) was “Non-Toxic” throughout.

For `Cc1c(C)[n+](CCc2c[nH]c3ccccc23)cn1CCc1c[nH]c2ccccc12`, the MIC in data set [1] is 19 µg/mL and 50 µM; in data set [2], > 100 µM; in the data set with Staphylococcus aureus [3], > 100 µM; in the data set with Escherichia coli [4], > 100 µM; in the data set on Acinetobacter baumannii [5], > 100 µM; with Acinetobacter baumannii [6], 38 µg/mL and 100 µM. Besides, the outcome in the data set on HCT-116, in the data set on A549, in the data set with HepG2 and in the data set on HT-1080 was inactive. Further, the Activity result (in the data set with WI-38; in data set [11]; with NIH3T3) was “Non-Toxic” throughout.

In general, MIC refers to the lowest concentration that inhibits growth of the organism.

The values above are taken from ChEMBL document CHEMBL5252618, “Discovery and Biosynthesis of Imidazolium Antibiotics from the Probiotic Bacillus licheniformis” (J Nat Prod, 2023).
